Test: Heat stability test (stress storage at 80° C., clopidogrel content by HPLC)
Format: physicochemical
Conditions: tightly closed container at 80° C., day 3, content of clopidogrel by HPLC
Method: Each of the (+)-clopidogrel isomer-resinate complex, so obtained from Examples 1, 2 and 8, including a solid form of (+)-clopidogrel optical isomer-Amberlite complex and (+)-clopidogrel isomer (free base), so obtained from Comparative examples 1 and 2, were put into a tightly closed container at 80° C. to determine the contents of clopidogrel in the baseline, day 1 and day 3 by HPLC analysis in accordance with a content uniformity test of the U.S. Pharmacopoeia.
(HPLC Analysis) • Column: ULTRON ES-OVM chiral 5 ? , 4.6×250 mm • Mobile phase: 0.01 M potassium dihydrogen phosphate solution/acetonitrile 75:25 • Flow rate: 1 mL/min • Column temperature: Room temperature • Detector: Ultraviolet absorption spectrophotometer (detection wavelength: 220 nm) • Injection volume: 10 ?

## COC(=O)[C@H](c1ccccc1Cl)N1CCc2sccc2C1 [(+)-clopidogrel isomer (free base), methyl(+)-(S)-(2-chlorophenyl)(6,7-dihydro-4H-thieno[3,2-c]pyridine-5-yl)acetate]
  decrease in content at day 3: 70%
